Reference: patent US10160719B2, “Pharmaceutical salts” (GRUNENTHAL GMBH, priority 2001, dated 2018)
Where a name gives a salt, the structure may show the parent alone.

Assay: water solubility determination at 20° C. in ion-free water
Conditions: for solubility at 10 min: water
Method: In a clear colorless vessel made of transparent material, such as, for example, glass or plastic, 1 ml of ion-free water or a fraction (amount A in ml) thereof is introduced at a temperature of 20° C.
If the amount of salt B added (in mg) completely dissolved, further amounts of the respective salt were slowly added. Each further addition was recorded and the solution behavior observed. As soon as the first turbidity due to undissolved salt was found by observation against a suitable background, stirring was continued for a further 10 minutes. If undissolved constituents subsequently remained, the sum C (in mg) of the amount of substance employed was determined. If a clear solution resulted again on stirring, further small amounts of the respective salt were added and the mixture was in each case stirred again for 10 minutes until a first turbidity remained on account of undissolved salts. The excess amount of undissolved substance was then brought into solution with stirring by addition of small amounts of water. After a clear solution had been obtained, the sum D (in ml) of the amount of water employed was determined. The solubility of the respective salt per 1 ml of water was then calculated according to the following formula: […]
If undissolved salt still remained then, the undissolved portion was brought into solution by addition of small amounts of water with stirring. After obtainment of a clear solution, the sum E (in ml) of the amounts of water employed was determined. The solubility of the respective salt per 1 ml of water was then calculated according to the following formula: […]

[1] = Solubility of the active compound salt in mg/ml of water, conventional salt of the active compound (salt indicated in brackets), ion-free water, 20° C.
[2] = Solubility of the active compound saccharinate in mg/ml of water, saccharinate salt, ion-free water, 20° C.
[3] = saccharinate salt, ion-free water, 20° C.

Row | Compound | solubility at 10 min [1] [mg/mL] | solubility at 10 min [2] [mg/mL] | also measured
1 | CC[C@H](c1cccc(O)c1)[C@H](C)CN(C)C.Cl [(+)-(1S,2S)-3-(3-dimethylamino-1-ethyl-2-methylpropyl)phenol hydrochloride] | ≥ 650 |  | 
2 | CNC[C@H](O)c1cccc(O)c1 [Phenylephrine saccharinate, Phenylephrine] |  | ≥ 380 | 
3 | COc1cccc([C@@]2(O)C[C@H](O)CC[C@@H]2CN(C)C)c1 (racemic) [(1RS,3RS,6RS)-6-dimethylaminomethyl-1-(3-methoxy-phenyl)cyclohexane-1,3-diol] | ≥ 500 | ≥ 71 | 
4 | Benzalkonium [Benzalkonium saccharinate] |  |  | Solubility of the active compound saccharinate in mg/ml of water [3]: <2 mg/ml of water
5 | CC[C@@](F)(c1cccc(O)c1)[C@@H](C)CN(C)C [(−)-(1S,2S)-3-(3-dimethylamino-1-ethyl-1-fluoro-2-methyl-propyl)phenol] | ≥ 568 | ≥ 130 | 
6 | COc1cc(N)cn[n+]1-c1ccccc1 [Amezinium metilsulfate, Amezinium] |  |  | solubility at 10 min (Solubility of the active compound salt in mg/ml of water): ≥ 25 mg/mL
7 | Benzalkonium [Benzalkonium hydrochloride] |  |  | Solubility of the active compound salt in mg/ml of water (conventional salt of the active compound (salt indicated in brackets), ion-free water, 20° C.): ≥ 500 mg/ml of water
8 | COc1cc(N)cn[n+]1-c1ccccc1 [Amezinium saccharinate, Amezinium] |  |  | solubility at 10 min (Solubility of the active compound saccharinate in mg/ml of water): ≥ 8 mg/mL
9 | CC[C@@H](c1cccc(O)c1)[C@@H](C)CN(C)C [(−)-(1R,2R)-3-(3-dimethylamino-1-ethyl-2-methylpropyl)phenol] | ≥ 261 | ≥ 31 | 
10 | CC[C@@](O)(c1cccc(OC)c1)[C@@H](C)CN(C)C [(−)-(2S,3S)-1-dimethylamino-3-(3-methoxyphenyl)-2-methylpentan-3-ol] | ≥ 2000 | ≥ 90 | 
11 | COc1ccc2c3c1O[C@H]1[C@@H](O)C=C[C@H]4[C@@H](C2)N(C)CC[C@@]341 [Codeine saccharinate, Codeine] |  | ≥ 200 | 
12 | CC[C@H](c1cccc(O)c1)[C@H](C)CN(C)C.O=C1NS(=O)(=O)c2ccccc21 [(+)-(1S,2S)-3-(3-dimethylamino-1-ethyl-2-methylpropyl)phenol saccharinate] |  |  | Solubility of the active compound saccharinate in mg/ml of water [3]: ≥ 55 mg/ml of water
13 | COc1ccc2c3c1O[C@H]1[C@@H](O)C=C[C@H]4[C@@H](C2)N(C)CC[C@@]341 [Codeine phosphate hemihydrate, Codeine] | ≥ 250 |  | 
14 | CNC[C@H](O)c1cccc(O)c1 [Phenylephrine hydrochloride, Phenylephrine] | ≥ 1250 |  | 
15 | COc1cccc([C@@]2(O)CC[C@H](OCc3ccc(F)cc3)C[C@@H]2CN(C)C)c1 [(+)-(1R,2R,4S)-2-dimethylaminomethyl-4-(4-fluorobenzyl-oxy)-1-(3-methoxy-phenyl)cyclohexanol] |  |  | solubility at 10 min (ion-free water, Solubility of the active compound saccharinate in mg/ml of water, saccharinate salt, 20° C.): ≥ 10 mg/mL; solubility at 10 min (ion-free water, Solubility of the active compound salt in mg/ml of water, conventional salt of the active compound (salt indicated in brackets), 20° C.): ≥ 33 mg/mL
